# ChEMBL document CHEMBL4811318, “Pyrrolo[1,2-a]quinoxal-5-inium salts and 4,5-dihydropyrrolo[1,2-a]quinoxalines: Synthesis, activity and computational docking for protein tyrosine phosphatase 1B” (Bioorg Med Chem, 2021)
# Tests used:
# [1] = biological target: T1, Tyrosine-protein phosphatase non-receptor type 1 (Homo sapiens) (UniProt P18031); test: Inhibition of recombinant human PTP1B (1 to 322 residues) expressed in Escherichia coli at 1 uM using IR5 (1142 to 1153 residues) as substrate incubated for 30 mins by spectrophotometry analysis relative to control
# T1 sequence (whole entry): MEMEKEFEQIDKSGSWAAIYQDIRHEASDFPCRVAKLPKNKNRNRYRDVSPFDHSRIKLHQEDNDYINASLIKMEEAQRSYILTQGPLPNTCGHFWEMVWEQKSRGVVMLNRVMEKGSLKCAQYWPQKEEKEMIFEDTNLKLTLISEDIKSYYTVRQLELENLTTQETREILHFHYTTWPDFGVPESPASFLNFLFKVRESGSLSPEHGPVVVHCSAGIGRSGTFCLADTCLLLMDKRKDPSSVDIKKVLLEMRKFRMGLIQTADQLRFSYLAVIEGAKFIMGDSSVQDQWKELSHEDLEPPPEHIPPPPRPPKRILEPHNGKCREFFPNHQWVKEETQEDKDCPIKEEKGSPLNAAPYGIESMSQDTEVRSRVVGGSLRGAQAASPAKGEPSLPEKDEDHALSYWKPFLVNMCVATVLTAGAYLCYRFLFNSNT
# [2] = biological target: T2, Tyrosine-protein phosphatase non-receptor type 1 (Homo sapiens, UniProt P18031); test: Inhibition of recombinant human PTP1B (1 to 322 residues) expressed in Escherichia coli using pNPP as substrate
# T2 sequence (P18031 whole entry): T1 sequence (whole entry)
# HepG2 = test: Cytotoxicity against human HepG2 cells assessed as […] cell viability at 50 uM measured after 24 hrs by MTT assay relative to control; format: cell-based; conditions: hepg2, 24 h
# [3] = biological target: T2, Tyrosine-protein phosphatase non-receptor type 1; test: Inhibition of PTP1B (unknown origin)
# [4] = biological target: T3, Tyrosine-protein phosphatase non-receptor type 2 (Homo sapiens, UniProt P17706); test: Inhibition of recombinant human TC-PTP (2 to 315 residues) expressed in Escherichia coli using pNPP as substrate
# T3 sequence (P17706 whole entry): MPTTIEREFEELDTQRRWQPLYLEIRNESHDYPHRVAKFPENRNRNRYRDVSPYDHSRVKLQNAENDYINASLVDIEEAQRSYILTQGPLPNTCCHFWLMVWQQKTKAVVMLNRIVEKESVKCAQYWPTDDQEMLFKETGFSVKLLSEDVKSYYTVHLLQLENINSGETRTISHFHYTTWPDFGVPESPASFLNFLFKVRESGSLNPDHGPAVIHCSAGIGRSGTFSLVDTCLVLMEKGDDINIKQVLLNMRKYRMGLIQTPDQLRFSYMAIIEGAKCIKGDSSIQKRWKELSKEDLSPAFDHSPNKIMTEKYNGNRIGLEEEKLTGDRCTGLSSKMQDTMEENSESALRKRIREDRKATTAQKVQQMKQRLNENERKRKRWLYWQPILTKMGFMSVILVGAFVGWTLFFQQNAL
# Homo sapiens = organism: Homo sapiens; test: Selectivity index, ratio of IC50 for recombinant human TC-PTP (2 to 315 residues) to IC50 for recombinant human PTP1B (1 to 322 residues) expressed in Escherichia coli
# C2C12 = test: Induction of glucose uptake in mouse C2C12 cells at 2 uM pretreated with insulin for 30 mins followed by compound treatment for 90 mins by fluorescence microplate reader assay relative to control; format: functional; conditions: 1.5 h
# [5] = Stability of the compound measured up to 5 days; format: physicochemical; conditions: 120 h; time <=5 day
# [6] = Stability of the compound measured after 5 days; format: physicochemical; conditions: 120 h; time 5 day
# [7] = Stability of the compound measured after 2 months at 4 degreeC; format: physicochemical; conditions: 1460 h
SMILES,inhibition [1] [%],IC50 [2] [nM],Activity (HepG2) [%],other results
c1ccc(Cc2nc3ccccc3n3cccc23)cc1,,,,IC50 [3]: 240 nM
CC1Nc2cc(Cl)c(Cl)cc2-n2cccc21 (stereo not drawn),56,950,> 90,IC50 [4]: > 5000 nM; Ratio IC50 (Homo sapiens): > 5.26; Activity (C2C12): 150%
C=C(C)[C@@H]1CC[C@]2(C(=O)O)CC[C@]3(C)[C@H](CC[C@@H]4[C@@]5(C)CC[C@H](O)C(C)(C)[C@@H]5CC[C@]43C)[C@@H]12 [BETULINIC ACID],,,,IC50 [3]: 1500 nM
CC1Nc2cc(C(F)(F)F)ccc2-n2cccc21 (stereo not drawn),56,,> 90,
CCCC[n+]1c(C)c2cccn2c2ccccc21.[I-],22,1910,> 90,
COc1ccc2c(c1)NC(C)c1cccn1-2 (stereo not drawn),56,1390,> 90,
Cc1cc2c(cc1C)[n+](C)c(C)c1cccn12.[I-],22,,> 90,
CC1Nc2ccccc2-n2cccc21 (stereo not drawn),56,410,> 90,Stabilty [5]: Stable; Stabilty [6]: Unstable; Stabilty [7]: Stable
Cc1c2cccn2c2ccc(C(F)(F)F)cc2[n+]1C.[I-],22,580,> 90,IC50 [4]: 410 nM; Ratio IC50 (Homo sapiens): 0.71
CC1c2cccn2-c2ccccc2N1C (stereo not drawn),56,510,> 90,IC50 [4]: 500 nM; Ratio IC50 (Homo sapiens): 0.98
CC1Nc2ccc(Cl)cc2-n2cccc21 (stereo not drawn),56,450,> 90,IC50 [4]: > 5000 nM; Ratio IC50 (Homo sapiens): > 11.1
C=C(C)[C@@H]1CC[C@]2(C)CC[C@]3(C)[C@H](CC[C@@H]4[C@@]5(C)CC[C@H](O)C(C)(C)[C@@H]5CC[C@]43C)[C@@H]12 [LUPEOL],,,,IC50 [3]: 560 nM
CCCCCCS(=O)(=O)NC(=O)c1ccc(CSCc2ccc(-c3ccccc3)cc2)cc1,,,,IC50 [3]: 250 nM
Cc1ccc2c(c1)NC(C)c1cccn1-2 (stereo not drawn),56,,,
Cc1nc2ccccc2n2cccc12,,,> 90,IC50 [4]: 3950 nM; Ratio IC50 (Homo sapiens): 4
CC1(C)CC[C@]2(C(=O)O)CC[C@@H]3C(=CC[C@H]4[C@H]3CC[C@@H]3[C@@H]4CC[C@H](O[C@@H]4O[C@H](CO)[C@@H](O)[C@H](O)[C@H]4O)C3(C)C)[C@@H]2C1,,,,IC50 [3]: 1400 nM
Cc1cc2c(cc1C)-n1cccc1C(C)N2 (stereo not drawn),56,,> 90,

# More lines, main results first:
inhibition [1] [%],IC50 [2] [nM],SMILES,Activity (HepG2) [%],other results
22,> 10000,COc1ccc2c(c1)[n+](C)c(C)c1cccn12.[I-],> 90,
,600,Cc1nc2ccc(Cl)cc2n2cccc12,> 90,IC50 [4]: > 25000 nM; Ratio IC50 (Homo sapiens): > 41
22,> 10000,Cc1ccc2c(c1)[n+](C)c(C)c1cccn12.[I-],> 90,
,> 10000,COc1ccc2c(c1)nc(C)c1cccn12,> 90,
,> 10000,Cc1ccc2c(c1)nc(C)c1cccn12,> 90,
,> 10000,Cc1cc2nc(C)c3cccn3c2cc1C,> 90,
22,320,Cc1c2cccn2c2ccccc2[n+]1C.[I-],> 90,
22,830,Cc1c2cccn2c2cc(Cl)ccc2[n+]1C.[I-],> 90,IC50 [4]: > 5000 nM; Ratio IC50 (Homo sapiens): > 6.02
,> 10000,Cc1nc2cc(C(F)(F)F)ccc2n2cccc12,> 90,
,570,Cc1nc2cc(Cl)c(Cl)cc2n2cccc12,> 90,IC50 [4]: > 25000 nM; Ratio IC50 (Homo sapiens): > 43
